Assay results: ChEMBL document CHEMBL6127136, “Discovery of 1-(Phenylsulfonyl)-1,2,3,4-tetrahydroquinoline Derivative as Orally Bioavailable and Safe RORγt Inverse Agonists for Potential Treatment of Rheumatoid Arthritis” (J Med Chem, 2024)
Activity calls are given as the source filed them. The calls are words filed in the database; no cut-off is given here.

Legend:
[1] = Toxicity in chicken type II collagen-induced arthritis DBA/1 mouse model assessed as morphological changes in thymocytes at 10 to 20 mg/kg/day, po administered for 2 weeks by H and E staining based analysis; type: organism-based; details: in vivo, 336 h, dose 10-20 mg/kg/day
[2] = system: Mus musculus; experiment: Antiarthritic activity in chicken type II collagen-induced arthritis DBA/1 mouse model assessed as reduction in fore paw erythema at 10 to 20 mg/kg/day, po administered for 2 weeks by H and E staining based analysis; type: functional, organism-based; details: dose 10-20 mg/kg/day
[3] = system: Mus musculus; experiment: Antiarthritic activity in po dosed chicken type II collagen-induced arthritis DBA/1 mouse model measured after 42 days; type: functional, organism-based; details: dose 10-20 mg/kg/day, time 42.0 day
[4] = system: Mus musculus; experiment: Antiarthritic activity in chicken type II collagen-induced arthritis DBA/1 mouse model assessed as reduction in hind paw swelling at 10 to 20 mg/kg/day, po administered for 2 weeks by H and E staining based analysis; type: functional, organism-based; details: dose 10-20 mg/kg/day
[5] = molecular target: T1, Nuclear receptor ROR-gamma (Homo sapiens, UniProt P51449); experiment: Inverse agonist activity at GAL4 DNA-binding domain fused RORgamma (unknown origin) transfected in HEK293T cells co-transfected with GAL4-promoter driven luciferase reporter gene assessed as inhibition of RORgammat transcription incubated for 18 to 20 hrs by plate reader analysis; type: cell-based
T1 sequence (P51449 whole entry): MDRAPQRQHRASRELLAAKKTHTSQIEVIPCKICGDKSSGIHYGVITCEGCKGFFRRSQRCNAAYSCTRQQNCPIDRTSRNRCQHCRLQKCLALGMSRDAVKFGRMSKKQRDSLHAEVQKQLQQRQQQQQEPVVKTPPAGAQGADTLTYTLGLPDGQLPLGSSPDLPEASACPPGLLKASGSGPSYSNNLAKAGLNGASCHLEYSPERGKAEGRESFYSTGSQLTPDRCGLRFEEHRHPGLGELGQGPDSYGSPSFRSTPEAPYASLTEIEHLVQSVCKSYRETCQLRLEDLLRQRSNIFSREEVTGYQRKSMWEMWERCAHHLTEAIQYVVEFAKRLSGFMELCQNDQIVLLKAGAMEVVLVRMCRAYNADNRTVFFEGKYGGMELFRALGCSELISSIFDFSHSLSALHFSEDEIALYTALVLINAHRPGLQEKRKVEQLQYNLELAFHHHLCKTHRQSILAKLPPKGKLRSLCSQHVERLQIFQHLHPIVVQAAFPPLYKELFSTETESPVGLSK

[6] = Toxicity in chicken type II collagen-induced arthritis DBA/1 mouse model assessed as increase in thymic cortex to medulla ratio at 10 to 20 mg/kg/day, po administered for 2 weeks by H and E staining based analysis; type: organism-based; details: in vivo, 336 h, dose 10-20 mg/kg/day
[7] = system: Mus musculus; experiment: Antiarthritic activity in chicken type II collagen-induced arthritis DBA/1 mouse model assessed as reduction in synovial hyperplasia at 20 mg/kg/day, po administered for 2 weeks by H and E staining based analysis; type: functional, organism-based
[8] = system: Mus musculus; experiment: Antiarthritic activity in chicken type II collagen-induced arthritis DBA/1 mouse model assessed as reduction in clinical score at 10 to 20 mg/kg/day, po measured after 42 days; type: functional, organism-based; details: dose 10-20 mg/kg/day, time 42.0 day
[9] = Toxicity in chicken type II collagen-induced arthritis DBA/1 mouse model assessed as body weight loss at 10 to 20 mg/kg/day, po measured after 42 days; type: organism-based; details: in vivo, 1008 h, dose 10-20 mg/kg/day, time 42 day
[10] = system: Mus musculus; experiment: Antiarthritic activity in chicken type II collagen-induced arthritis DBA/1 mouse model assessed as reduction in claw thickness at 10 to 20 mg/kg/day, po measured after 42 days; type: functional, organism-based; details: dose 10-20 mg/kg/day, time 42.0 day
[11] = system: Mus musculus; experiment: Antiarthritic activity in chicken type II collagen-induced arthritis DBA/1 mouse model assessed as reduction in hind paw thickness at 10 to 20 mg/kg/day, po administered for 2 weeks by H and E staining based analysis; type: functional, organism-based; details: dose 10-20 mg/kg/day
[12] = system: Mus musculus; experiment: Antiarthritic activity in chicken type II collagen-induced arthritis DBA/1 mouse model assessed as reduction in fore paw thickness at 10 to 20 mg/kg/day, po administered for 2 weeks by H and E staining based analysis; type: functional, organism-based; details: dose 10-20 mg/kg/day
[13] = Toxicity in chicken type II collagen-induced arthritis DBA/1 mouse model assessed as signs of thymic enlargement at 10 to 20 mg/kg/day, po administered for 2 weeks by H and E staining based analysis; type: organism-based; details: in vivo, 336 h, dose 10-20 mg/kg/day
[14] = system: Mus musculus; experiment: Antiarthritic activity in chicken type II collagen-induced arthritis DBA/1 mouse model assessed as reduction in damage of articular cartilage at 20 mg/kg/day, po administered for 2 weeks by H and E staining based analysis; type: functional, organism-based
[15] = Toxicity in chicken type II collagen-induced arthritis DBA/1 mouse model assessed as behavioral abnormalities at 10 to 20 mg/kg/day, po measured after 42 days; type: organism-based; details: in vivo, 1008 h, dose 10-20 mg/kg/day, time 42 day
[16] = molecular target: T1, Nuclear receptor ROR-gamma; experiment: Inverse agonist activity at N-terminal 6-His-tagged/APC-labeled human RORgammat LBD extracted from Escherichia coli assessed as inhibition of europium-labeled SRC-1 recruitment incubated for 3 hrs by TR-FRET analysis
[17] = system: Mus musculus; experiment: Antiarthritic activity in chicken type II collagen-induced arthritis DBA/1 mouse model assessed as reduction in fore paw swelling at 10 to 20 mg/kg/day, po administered for 2 weeks by H and E staining based analysis; type: functional, organism-based; details: dose 10-20 mg/kg/day
[18] = Toxicity in chicken type II collagen-induced arthritis DBA/1 mouse model assessed as signs of lymphoma at 10 to 20 mg/kg/day, po administered for 2 weeks by H and E staining based analysis; type: organism-based; details: in vivo, 336 h, dose 10-20 mg/kg/day
[19] = system: Mus musculus; experiment: Antiarthritic activity in chicken type II collagen-induced arthritis DBA/1 mouse model assessed as reduction in inflammatory cell infiltration at 20 mg/kg/day, po administered for 2 weeks by H and E staining based analysis; type: functional, organism-based
[20] = system: Mus musculus; experiment: Antiarthritic activity in chicken type II collagen-induced arthritis DBA/1 mouse model assessed as reduction in hind paw erythema at 10 to 20 mg/kg/day, po administered for 2 weeks by H and E staining based analysis; type: functional, organism-based; details: dose 10-20 mg/kg/day
[21] = system: Mus musculus; experiment: Antiarthritic activity in chicken type II collagen-induced arthritis DBA/1 mouse model assessed as improvement in arthritic symptoms at 10 to 20 mg/kg/day, po administered for 2 weeks by H and E staining based analysis; type: functional, organism-based; details: dose 10-20 mg/kg/day

In the case of `CC[C@@H]1CCc2cc(C(C)C)ccc2N1S(=O)(=O)c1ccc(OCC2CCOCC2)c(CO)c1`, the Activity [1] is reported as “Non-Toxic”, the Activity [2] is reported as “Active” and the Activity [3] is reported as “Dose-Dependent Effect”. The Activity [4] was “Active”, the IC50 [5] was 14.8 nM and the Activity [6] was “Toxic”. The Activity [7] was “Active”, the Activity [8] was “Active” and the Activity [9] was “Non-Toxic”. The Activity [10] was “Active”, the Activity [11] was “Active” and the Activity [12] was “Active”. For the same compound, the Activity [13] was “Non-Toxic”, the Activity [14] was “Active” and the Activity [15] was “Non-Toxic”. For the same compound, the IC50 [16] was 3 nM, the Activity [17] was “Active” and the Activity [18] was “Non-Toxic”. The Activity [19] was “Active”, the Activity [20] was “Active” and the Activity [21] was “Active”.
